The values below are quoted from earlier work in patent US20150335678A1, “METHOD OF ACTIVATING STEM CELLS IN AN ANIMAL AND THE USE OF CHLORINE DIOXIDE FOR PREPARING MEDICINES FOR ACTIVATING STEM CELLS IN AN ANIMAL” (priority 2012, published 2015).

One data set relates to rat. To be noted: cited from earlier work.
The test system of a further data set is mouse. Particulars: mouse per os; cited from earlier work.

Read-outs that look alike come from different tables or passages of the source.

As to `[Na+].[O-][Cl+][O-]` [NaClO2], in the data set with rat (rat, in vivo), the “accumulative toxicity classification of aqueous solution” value is “non-obvious accumulative toxic” and the “toxicity classification of aqueous solution” value was “actually non-toxic”. As to stable chlorine dioxide, the LD50 in the data set with mouse was over 10000 mg/kg. As for `[Na+].[O-][Cl+2]([O-])[O-]` [NaClO3], the “accumulative toxicity classification of aqueous solution” value in the data set on rat (ClO2 276.5 mg/L, NaClO2 200 mg/L, NaClO3) was “non-obvious accumulative toxic”. Further, the “toxicity classification of aqueous solution” value with rat (ClO2 276.5 mg/L, NaClO2 and NaClO3 200 mg/L, ClO2 mixed solution total concentration 553 mg/L) was “actually non-toxic”.
